Consider seven molecules from PMC9228152, “New Amino Naphthoquinone Derivatives as Anti-Trypanosoma cruzi Agents Targeting Trypanothione Reductase” (Pharmaceutics, 2022).

What is called IC50 is the concentration at which inhibition is half-maximal. As usually defined, the Ki is a measure of affinity in units of concentration, obtained from inhibition or displacement.

The subject of test [1] is J774 cells. More on the design: method as in PMID 31709599. The settings on record: cited from earlier work.
For test [2], the system named is T. cruzi epimastigotes, NINOA strain. Description: Growth inhibition of T. cruzi epimastigotes, NINOA strain. Format: cell-based. The note with it: Trypanosoma cruzi, 120 h, epimastigotes, NINOA strain; five days; means of three independent experiments; read-out: Epi NINOA IC50. On the procedure: (§1) Epimastigotes from T. cruzi strains NINOA and INC-5 were cultured in BHI (brain heart infusion broth, 89%) axenic medium, as reported in [26], at an initial concentration of 1 × 10^6 parasites/mL, at 28 °C, supplemented with 10% foetal bovine serum and 1% sodium penicillin-streptomycin. […] On the last day, the absorbance of the cultures was measured and related to the control. All measurements were carried out in triplicate. No toxic effect was attributable to DMSO. Since parasite growth is exponential, the data were analysed according to a first order equation, and the respective growth constant (k), corresponding to the slope, was calculated for controls and parasites treated with different drug concentrations. From these measurements, percentage growth inhibition (%GI) and half-maximal inhibitory concentration (IC50) values were calculated.

The subject of test [3] is J774 murine macrophages. Briefly: Cytotoxicity on J774 macrophages (MTT). The format is cell-based. The settings on record: J774 macrophages, MTT, 24 h, read-out: J774 IC50. On the procedure:
Cytotoxicity assays for the compounds selected for their trypanocidal activity were performed on J774 macrophage cells using the MTT method. For this purpose, 50,000 cells/well resuspended in RPMI medium and 2% foetal bovine serum were seeded in a 96-well plate and incubated for 24 h at 37 °C. […] After 24 h of incubation, the existing culture medium was replaced in the plate with fresh culture medium along with […] each of the compound dilutions (100 to 1.25 μM) and Bzn to a final volume of 100 µL per well. This plate was then incubated in 5% CO2 for 24 h at 37 °C. The controls used were cells with medium as a positive control and cells without culture medium as a negative control. After the 24 h incubation, the morphology of the macrophages was observed under a microscope and then the culture medium was removed again and the MTT solution (5 mg/mL) was added. After 1 h incubation at 37 °C, the absorbance at 570 nm was recorded on an Elisa Epoch reader. The following formula was used to calculate the % cytotoxicity: %cytotoxicity = (100 − (mean number of cells with treatment/cells without treatment) × 100).

The subject of test [4] is T. cruzi epimastigotes, INC-5 strain. Briefly: Growth inhibition of T. cruzi epimastigotes, INC-5 strain. Format: cell-based, Trypanosoma cruzi. The note with it: epimastigotes, INC-5 strain, five days, means of three independent experiments, read-out: Epi INC-5 IC50. As to the method: as §1
Test [5] deals with NINOA strain of T. cruzi trypomastigotes. More on the design: method as in PMID 31709599. The note with it: cited from earlier work.
Test [6] has as its system T. cruzi trypomastigotes, NINOA strain. Description: microbe, parasite or virus in culture. The format is cell-based. The settings on record: Trypanosoma cruzi; bloodstream trypomastigotes, NINOA strain; 24 h at 4 °C; read-out: Trypo NINOA LC50 (half-maximal lytic concentration). On the procedure:
(§2) Those compounds with the lowest IC50 values in the epimastigote studies of each strain were evaluated in trypomastigotes. For this purpose, bloodstream trypomastigotes of INC-5 and NINOA strains were used for peritoneal injection into 6−8-week-old CD1 mice. The peak of parasitemia was achieved after 4–6 weeks, at which time parasitised blood samples were obtained by cardiac puncture using sodium heparin as an anticoagulant and diluted to a concentration of 1 × 10^6 trypomastigotes/mL. 10 µL of each of the dilutions of the study compounds and Bzn, with these being placed in a 96-well plate, and 90 µL of infected blood was added, providing a final volume of 100 µL per well. The microplates were incubated at 4 °C for 24 h, and concentrations of 20 µM, 10 µM, and 5 µM of each compound were considered in these experiments. Each evaluation was performed in triplicate. Wells with untreated blood trypomastigotes were used as a negative lysis control and Bzn as a positive control. Then, the degree of lysis of trypomastigotes was determined by their reduction in number using an optical microscope according to the Brener–Pizzi method. For this purpose, 5 μL of blood was placed between a slide and a 13 × 13 coverslip. Mobile trypomastigotes were counted in 15 microscope fields at 40× magnification. Quantification of the degree of lysis for each case was expressed as a percentage considering the number of viable trypomastigotes with respect to the negative control. The half-maximal lytic concentration (LC50) was determined by linear regression. The experiments were carried out in accordance with the recommendations and approval of the local Ethics and Research Committee (Approval number: ENCB/CEI/078/2020).

Test [7] relates to T. cruzi trypomastigotes, INC-5 strain. Description: microbe, parasite or virus in culture. The format is cell-based. The note with it: Trypanosoma cruzi; bloodstream trypomastigotes, INC-5 strain; 24 h at 4 °C; read-out: Trypo INC-5 LC50 (half-maximal lytic concentration). On the procedure: as §2
In test [8] the target is recombinant TcTR (Trypanosoma cruzi, UniProt P28593). Briefly: Trypanothione reductase inhibition assay (TS2-dependent NADPH oxidation). The format is biochemical. The note with it: for Ki: mixed-type inhibition, global nonlinear regression. On the procedure:
The inhibition of TcTR activity by 7j was evaluated by monitoring the trypanothione disulphide (TS2)-dependent NADPH oxidation by using the assay described before. The reaction mixture contained assay buffer (40 mM HEPES pH 7.4, 1 mM EDTA), recombinant TcTR (88-168 ng/mL), NADPH (the concentration depended on experiment), and different 7j concentrations when required, in a volume of 500 μL. The mixture was incubated at 37 °C for 3 min, and TS2 was added to start the reaction. The absorbance at 340 nm was recorded in real time for 10 min, and the activity was calculated from the slope of the curves as μmol of NADPH oxidised per min (e^340 = 6.22 mM^−1 cm^−1).

In test [9] the test system is Y strain of T. cruzi epimastigote. More on the design: method as in doi:10.1039/C5RA10122K. The note with it: read-out: IC50 against Y strain of T. cruzi epimastigote; cited from earlier work.
Test [10] concerns epimastigotes of the Tulahuén strain. More on the design: method as in PMID 25127463. The settings on record: read-out: IC50 against epimastigotes of the Tulahuén strain; cited from earlier work.
Test [11] has as its system T. cruzi trypomastigotes. More on the design: method as in PMID 30670432. The settings on record: cited from earlier work.
In test [12] the test system is trypomastigote cultures (Y strain). More on the design: method as in PMID 28215783. The note with it: cited from earlier work.
Where [13] appears, read: alpha of the mixed-type inhibitor equation, replots of slope and 1/v axis intercept vs. 7j.

Each structure is given as a SMILES string. Where two headings read alike, the source gives them in different places.

Chain of recombinant TcTR (P28593 whole entry): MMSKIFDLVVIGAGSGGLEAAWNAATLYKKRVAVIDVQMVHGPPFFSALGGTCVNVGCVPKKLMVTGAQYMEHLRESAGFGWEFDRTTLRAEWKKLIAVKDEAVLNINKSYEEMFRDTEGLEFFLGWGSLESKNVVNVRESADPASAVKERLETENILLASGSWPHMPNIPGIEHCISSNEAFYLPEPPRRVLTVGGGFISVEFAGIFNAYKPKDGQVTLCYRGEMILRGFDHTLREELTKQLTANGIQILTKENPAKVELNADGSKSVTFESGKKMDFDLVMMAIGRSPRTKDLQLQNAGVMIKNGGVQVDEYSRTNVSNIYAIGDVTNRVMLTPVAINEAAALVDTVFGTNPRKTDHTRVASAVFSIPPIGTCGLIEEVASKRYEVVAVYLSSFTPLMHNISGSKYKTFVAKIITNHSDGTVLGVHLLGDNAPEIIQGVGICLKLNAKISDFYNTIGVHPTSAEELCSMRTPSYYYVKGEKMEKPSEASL

In the case of `O=C(Cn1ccnc1[N+](=O)[O-])NCc1ccccc1` [Bzn, benznidazole, reference compound], the IC50 in [1] is 352 µM; in test [2] it was 8.21 ± 1.8 µM; in [3] (Mus musculus, J774, 24 h), 352 µM; in test [4] (Trypanosoma cruzi, 120 h) it was 42300 ± 5800 nM; in test [5], 40.7 µM. The values for the LC50 in test [6] and in test [7] were greater than 100 µM and 85.6 ± 4.23 µM, respectively.
For `O=C1C(Cl)=C(N2CCC(NC(=O)c3cccc4ccccc34)CC2)C(=O)c2ccccc21` [Compound 7j, N-(1-(3-chloro-1,4-dioxo-1,4-dihydronaphthalen-2-yl)piperidin-4-yl)-1-naphthamide], the “α NADPH” value in test [8] (setting [13]) is 1.12. Further, in test [8] (setting [13]), the “α TS2” value came to 0.77. In addition, the Ki was 18 ± 3.5 µM in [8] (NADPH varied, TS2 fixed 200 µM, read-out: Ki 7j vs. NADPH) and 28 ± 4.5 µM in [8] (TS2 varied, NADPH fixed 160 µM, read-out: Ki 7j vs. TS2). For the same molecule, the “Type of enzyme inhibition” value in [8] (with respect to both substrates, TS2 and NADPH, Lineweaver-Burk plots) is “simple mixed-type inhibitor”. Further, the IC50 is 33 µM in test [3]; roughly 25 µM in [3] (Mus musculus, J774, 24 h); less than 1000 nM in test [4] (Trypanosoma cruzi, 120 h); 920 ± 10 nM in test [4]. Besides, the values for the LC50 in test [6] and in test [7] were 98.1 ± 8.9 µM and 59.7 ± 3.72 µM, respectively.
Consider `O=C1C=C(Oc2cccc([N+](=O)[O-])c2)C(=O)c2ccccc21` [II, 2-(3-nitrophenoxy)-1,4-naphthoquinone], for which the IC50 in test [9] was 20 nM.
For the molecule `Cc1ccc(OC2=C(Cl)C(=O)c3ccccc3C2=O)cc1[N+](=O)[O-]` [III], the IC50 in test [1] is 117 µM; in [5], 9.38 µM.
Turning to `CCCCCCOc1ccc(NC2=CC(=O)c3ccccc3C2=O)cc1` [I], the IC50 in [10] is 1720 nM.
`O=C(Nc1nc(-c2ccccc2)c[nH]1)N1CCN(c2ccc(C(F)(F)F)cc2[N+](=O)[O-])CC1` [VI]: in [11], the IC50 was 2200 nM.
With `Clc1ccc2nccc(NCCN3CCOCC3)c2c1` [V], in [12], the IC50 was 67.7 µM.
